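Protocol summary: plate cells (96-well), add compound at 5 concentrations, incubate 48 h, interpolate endpoints linearly. The concentration for full growth arrest is given as TGI.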
Assays:
Test in all cases: NCI anticancer screen, dose series, 48 h
[1] = system: OVCAR-8 ovarian
[2] = system: EKVX NSCLC
[3] = system: SN12C renal
[4] = system: DU-145 prostate
[5] = system: SR leukemia
[6] = system: IGROV1 ovarian
[7] = system: HCT-116 colon
[8] = system: HCT-15 colon
[9] = system: CCRF-CEM leukemia
[10] = system: NCI-H460 lung
[11] = system: UO-31 renal
[12] = system: MDA-MB-435
[13] = system: OVCAR-5 ovarian
[14] = system: SNB-19 CNS
[15] = system: HCC-2998 colon
[16] = system: SW-620 colon
[17] = system: A498 renal
[18] = system: OVCAR-3 ovarian
[19] = system: TK-10 renal
[20] = system: SF-295 CNS
[21] = system: BT-549 breast
[22] = system: SF-539 CNS
[23] = system: T-47D breast
[24] = system: A549 NSCLC
[25] = system: SK-MEL-5 melanoma
[26] = system: U251 CNS
[27] = system: LOX IMVI melanoma
[28] = system: ACHN renal
[29] = system: OVCAR-4 ovarian
[30] = system: HL-60(TB) leukemia
[31] = system: MALME-3M melanoma
[32] = system: CAKI-1 renal
[33] = system: SK-OV-3 ovarian
[34] = system: NCI-H23 lung
[35] = system: HOP-62 NSCLC
[36] = system: SNB-75 CNS
[37] = system: COLO 205 colon
[38] = system: MDA-N
[39] = system: RPMI-8226 leukemia
[40] = system: UACC-62 melanoma
[41] = system: HT29 colon
[42] = system: 786-0 renal
[43] = system: K-562 leukemia
[44] = system: SF-268 CNS
[45] = system: MCF7 breast
[46] = system: SK-MEL-28 melanoma
[47] = system: UACC-257 melanoma
[48] = system: KM12 colon
[49] = system: NCI/ADR-RES ovarian
[50] = system: NCI-H226 lung
[51] = system: HOP-92 NSCLC
[52] = system: NCI-H522 lung
[53] = system: MOLT-4 leukemia
[54] = system: PC-3 prostate
[55] = system: RXF 393 renal
[56] = system: HS 578T breast

`COc1ccc(CSc2ccccc2Cn2cccc2)cc1OC` was tested, and the TGI [1] was greater than 100 µM, the TGI [2] was greater than 100 µM and the TGI [3] was greater than 100 µM. It also gave a TGI [4] greater than 100 µM, a TGI [5] greater than 100 µM and a TGI [6] greater than 100 µM. For the same molecule, the TGI [7] was greater than 100 µM, the TGI [8] was greater than 100 µM and the TGI [9] was greater than 100 µM. For the same molecule, the TGI [10] was greater than 100 µM, the TGI [11] was greater than 100 µM and the TGI [12] was greater than 100 µM. For the same molecule, the TGI [13] was greater than 100 µM, the TGI [14] was greater than 100 µM and the TGI [15] was greater than 100 µM. For the same molecule, the TGI [16] was greater than 100 µM, the TGI [17] was greater than 100 µM and the TGI [18] was greater than 100 µM. It also gave a TGI [19] greater than 100 µM, a TGI [20] greater than 100 µM and a TGI [21] greater than 100 µM. It also gave a TGI [22] greater than 100 µM, a TGI [23] greater than 100 µM and a TGI [24] greater than 100 µM. The TGI [25] was greater than 100 µM, the TGI [26] was greater than 100 µM and the TGI [27] was greater than 100 µM. It also gave a TGI [28] greater than 100 µM, a TGI [29] greater than 100 µM and a TGI [30] greater than 100 µM. The TGI [31] was greater than 100 µM, the TGI [32] was greater than 100 µM and the TGI [33] was greater than 100 µM. It also gave a TGI [34] greater than 100 µM, a TGI [35] greater than 100 µM and a TGI [36] greater than 100 µM. The TGI [37] was greater than 100 µM, the TGI [38] was greater than 100 µM and the TGI [39] was greater than 100 µM. The TGI [40] was greater than 100 µM, the TGI [41] was greater than 100 µM and the TGI [42] was greater than 100 µM. The TGI [43] was greater than 100 µM, the TGI [44] was greater than 100 µM and the TGI [45] was greater than 100 µM. For the same molecule, the TGI [46] was greater than 100 µM, the TGI [47] was greater than 100 µM and the TGI [48] was greater than 100 µM. It also gave a TGI [49] greater than 100 µM and a TGI [50] greater than 100 µM.

With `Cc1ccc(S(=O)(=O)NCCSCCSCCNS(=O)(=O)c2ccc(C)cc2)cc1` the TGI [1] was greater than 100 µM, the TGI [3] was greater than 100 µM and the TGI [4] was greater than 100 µM. The TGI [51] was greater than 100 µM, the TGI [5] was greater than 100 µM and the TGI [7] was greater than 100 µM. The TGI [9] was greater than 100 µM, the TGI [10] was greater than 100 µM and the TGI [11] was greater than 100 µM. The TGI [52] was greater than 100 µM, the TGI [14] was greater than 100 µM and the TGI [15] was greater than 100 µM. For the same molecule, the TGI [16] was greater than 100 µM, the TGI [53] was greater than 100 µM and the TGI [17] was 91.6 µM. For the same molecule, the TGI [19] was greater than 100 µM, the TGI [20] was greater than 100 µM and the TGI [54] was greater than 100 µM. For the same molecule, the TGI [55] was greater than 100 µM, the TGI [24] was greater than 100 µM and the TGI [25] was 18 µM. For the same molecule, the TGI [27] was greater than 100 µM, the TGI [28] was greater than 100 µM and the TGI [29] was greater than 100 µM. For the same molecule, the TGI [33] was greater than 100 µM, the TGI [36] was 68.7 µM and the TGI [37] was 41.2 µM. It also gave a TGI [38] greater than 100 µM, a TGI [41] greater than 100 µM and a TGI [43] greater than 100 µM. For the same molecule, the TGI [44] was greater than 100 µM, the TGI [45] was greater than 100 µM and the TGI [46] was greater than 100 µM. It also gave a TGI [47] greater than 100 µM, a TGI [48] greater than 100 µM and a TGI [49] greater than 100 µM. For the same molecule, the TGI [56] was greater than 100 µM and the TGI [50] was greater than 100 µM.
